Test results from patent publication US20090069343A1, “Combination Histamine H1R and H4R Antagonist Therapy for Treating Pruritus” (priority 2006, published 2009).

Tests used:
Type in all cases: in vivo, mouse
[1] = test system: CD-1 mice, histamine-induced itch; assay: Histamine-induced itch, Example 1a; details: oral dose 20 min before i.d. histamine, FIG. 8
Procedure: Methods. Experiments and procedures were performed under on-site IACUC standards and regulations. Female CD-1 mice (Charles River Hollister, Calif.) of approximately 10-12 weeks of age were used. Mice were housed under controlled light (6:00-18:00 h) and temperature (22° C.) with food and water available ad libitum. Histamine diphosphate (Sigma, St. Louis, Mo.) was dissolved in Dulbecco's phosphate buffered saline (PBS, pH=7.4) at various concentrations. H4R Inhibitor 1 was synthesized as described by Jablonowski et al. (J. Med. Chem. (2003), 46, 3957-3960), dissolved in a vehicle of 20% HPBCD/water at various concentrations, and administered per os (p.o.; by mouth) at a volume of 10 ml/kg. Antagonists of other histamine receptors, H1R (diphenhydramine and desloratadine), H2R (ranitidine) and H3R (1-[3-(4-piperidin-1-ylmethyl-phenoxy)-propyl]-piperidine, (“H3R Antagonist 1”; synthesized as described by Barbier et al., British J. Pharmacology (2004), 143: 649-661) were formulated similarly for use in experiments. In all experiments the hair was clipped over the rostral part of the back 24 hours prior to i.d. injection of pruritogen. Where noted, animals received an oral dose of histamine receptor antagonist 20 minutes prior to injection of pruritogen. Animals were injected i.d. with 20 μl of histamine. PBS was given as the vehicle control (“V). Immediately after intradermal injection, the animals were returned to an acrylic cage (approx. 15 cm dia×30 cm) to which they had been acclimated for at least 1 hour prior to the experiment, for observation of itch responses.

[2] = test system: mice, H4R agonist-induced scratching; assay: Selective H4R agonist-induced scratching, background example; details: oral administration; FIG. 6
[3] = test system: mice, histamine-induced scratching; assay: Histamine-induced scratching, background example; details: FIG. 4
Procedure: To evaluate the direct role of histamine in the pruritic response, histamine was injected in to the skin of mice and the amount of scratching measured.

[4] = test system: Balb/c mice, Compound 48/80-induced itch response; assay: Compound 48/80-induced itch response (scratches in 20 min), background example; details: for inhibition of itch response: Compound 48/80, FIG. 2
Procedure: The role of histamine H4 receptor in itch responses was evaluated in mice.

[5] = test system: CD-1 mice, Compound 48/80-induced itch; assay: Compound 48/80-induced itch, Example 1b; details: oral dose 20 min before i.d. Compound 48/80, FIG. 9
Procedure: Methods. Experiments and procedures were performed under on-site IACUC standards and regulations. Female CD-1 mice (Charles River Hollister, Calif.) of approximately 10-12 weeks of age were used. Mice were housed under controlled light (6:00-18:00 h) and temperature (22° C.) with food and water available ad libitum. Compound 48/80 (Sigma, St. Louis, Mo.) was dissolved in Dulbecco's phosphate buffered saline (PBS, pH=7.4) at 5 mg/ml. H4R Inhibitor 1 (synthesized as previously described) was dissolved in a vehicle of 20% HPBCD/water at various concentrations and administered p.o. at a volume of 10 ml/kg. […] In all experiments the mouse hair was clipped over the rostral part of the back 24 hours prior to i.d. injection of pruritogen. Where noted, animals received an oral dose of histamine receptor antagonist 20 min prior to injection of pruritogen. Animals were injected i.d. with 20 μl of Compound 48/80 or were given PBS as a vehicle control. Immediately after intradermal injection, the animals were returned to an acrylic cage (approx. 15 cm diameter×30 cm height) to which they had been acclimated for at least 1 h prior to the experiment, for observation of itch responses.

SMILES	effect on histamine-induced itch [1]	effect on H4R agonist-induced scratching [2]	inhibition of histamine-induced scratching ([3]; 3 mg/kg oral pre-treatment) [%]	inhibition of histamine-induced scratching ([3]; 30 mg/kg oral pre-treatment (maximal)) [%]	effect on histamine-induced scratching ([3]; oral pre-treatment)	inhibition of itch response ([4]; 3 mg/kg) [%]	reduction of itch response ([4]; 30 mg/kg orally prior to Compound 48/80 injection, Balb/c mice) [%]	inhibition of itch response ([4]; 100 mg/kg (maximally active)) [%]	effect on Compound 48/80-induced itch [5]
c1cc(OCCCN2CCCCC2)ccc1CN1CCCCC1 [H3R Antagonist 1, 1-[3-(4-piperidin-1-ylmethyl-phenoxy)-propyl]-piperidine]	neither the H2R antagonist ranitidine nor the H3R antagonist demonstrated significant inhibition								
CN1CCN(C(=O)c2cc3cc(Cl)ccc3[nH]2)CC1 [H4R Inhibitor 1]	significant reduction of histamine-induced itch	inhibitable	17	75	dose-dependently inhibited	12	62.5	68	significantly reduced the itch
Clc1ccc2c(c1)CCc1cccnc1C2=C1CCNCC1 [desloratadine]	no effect								
CN(C)CCOC(c1ccccc1)c1ccccc1 [diphenhydramine, reference compound]	Small but significant inhibition								Small but significant inhibition
